Read-outs that look alike come from different tables or passages of the source. One block for each compound: values may come before it.
Columns and labels:
[1] = cited from earlier work
[2] = cited from earlier work; remark: listed apart in the source
[3] = FL response of TPE boronic acid probe to D-glucose in carbonate buffer
Experimental: The present subject matter in one embodiment relates to a selective detection of D-glucose (D-Glu) by TPEDB probe in a sample with its fluorescence enhancement. The concentration or level of D-Glu detectable in a sample is not particularly limited, but is preferably about 0.2 mM or more. […] When 0.2 mM Glu was added, however, the FL spectrum of TPEDB was intensified. The FL intensity increased with an increase in the amount of Glu. At [Glu]=5 mM, the solution of TPEDB became very emissive, with an intensity ca. 5.4-fold higher than that in the absence of Glu.
(§1) Into a 100 mL volumetric flask were added 1.120 g of K2CO3, 0.190 g of KHCO3 and 80 mL of deionized water. After adding 3 mL of DMSO into the carbonate buffer, 1 mL of the stock solution of TPEDB in DMSO (10 mM) was added under stirring. The volume of the solution was increased to 100 mL by adding an appropriate amount of deionized water. The resultant solution of TPEDB (0.1 mM) in the carbonate buffer (pH 10.5) was stirred for 15 min before use.
Into a 25 mL volumetric flask was added 90 mg of a saccharide (Glu, Fru, Gal or Man) and 25 mL of deionized water. An aliquot of the resultant stock solution (20 mM) was diluted in another volumetric flask to obtain a sample solution with a desired concentration (2.0 mM, 0.20 mM, 20 μM or 2.0 μM).
An aliquot (2.0 mL) of the stock solution of TPEDB (0.1 mM) in the carbonate buffer containing 4 vol % DMSO and 2.0 mL of the stock solution of Glu (20 mM) were added into a 10 mL volumetric flask. After shaking for a few seconds, a solution of TPEDB (50 μM) with 10 mM of Glu in the carbonate buffer containing 2 vol % DMSO was obtained. The solution was allowed to stand for 30 min before its FL measurement.
To prepare a solution of TPEDB (50 μM) with 8 mM of Glu in the carbonate buffer containing 2 vol % DMSO, 1.6 mL of the stock solution of Glu (20 mM) and 0.4 mL of deionized water were added to 2.0 mL of a stock solution of TPEDB (0.1 mM) in the carbonate buffer containing 4 vol % DMSO.

[4] = FL response of probe to D-fructose in carbonate buffer
[5] = FL response of TPEDB to Glu in the presence of a saccharide interferent
Experimental: In the presence of Fru, the FL spectrum of TPEDB was gradually intensified by the addition of Glu, but the rate of increase in the intensity was lower because of the competition between Glu and Fru to bind with TPEDB. Similarly, Gal and Man interfered with the FL response of TPEDB to Glu, although the effects were smaller.
Solutions of Glu (40 mM-4.0 μM), Fru (0.4 mM), Gal (0.4 mM) and Man (0.4 mM) in deionized water were prepared. An aliquot (2.0 mL) of the solution of TPEDB (0.1 mM) in the carbonate buffer containing 4 vol % DMSO was added into a 10 mL volumetric flask, followed by the addition of 1.0 mL of a solution of Fru (0.4 mM) and 1.0 mL of a solution of Glu (40 mM). After shaking for a few seconds, a solution of TPEDB (50 μM) with 10 mM of Glu and 0.1 mM of Fru in the carbonate buffer containing 2% DMSO was obtained. The solution was allowed to stand for 30 min before its FL measurement. The solution of TPEDB and Glu containing another saccharide (Gal or Man) was prepared by similar procedures.

[6] = FL intensity of TPEDB in Britton-Robinson buffers at different pH; type: physicochemical
Experimental: (§2) The light emission of TPEDB started to decrease in intensity when the pH of the buffer was raised to >8.61 and became very weak at pH≧9.74. Since the pKa of PBA is ca. 9, TPEDB was ionized by the alkaline medium and became soluble in the buffers with high pH. The solutions of TPEDB were virtually nonfluorescent, while its aggregates were highly emissive, proving that TPEDB, like its parent form TPE, is AIE-active.
as §1, with “4.0 mg NaOH” for “1.120 g of K2CO3, 0.190 g of KHCO3”, “NaOH solution (0.001M) containing 4 vol % DMSO” for “carbonate buffer (pH 10.5)”
Into a 100 mL volumetric flask were added 4.611 H3PO4, 2.402 g CH3COOH, and 2.473 g B(OH)3, and the volume of the solution was increased to 100 mL by adding appropriate amount of deionized water. The resultant solution of the acid mixture (0.4 M) was stirred for 15 min before use. Into a 100 mL volumetric flask was added 1.600 g NaOH, and the volume of the solution was increased to 100 mL by adding appropriate amount of deionized water. The resultant solution of base (0.4 M) was stirred for 15 min before use. An aliquot (0.4 mL) of the solution of acid mixture (0.4 M) and appropriate amount of the solution of NaOH (0.4 M) from 0 mL to 1.6 mL were added into a 10 mL volumetric flask. The volume of the solution was increased to 2.0 mL by adding an appropriate amount of deionized water. The resultant standard Britton-Robinson buffer (0.08 M) with various pH was left to stand for a few minutes before use.
An aliquot (2.0 mL) of the stock solution of TPEDB (0.1 mM) in the NaOH solution (0.001M) containing 4 vol % DMSO and 2.0 mL of the standard Britton-Robinson buffer (0.08 M) with various pH were added into a 10 mL volumetric flask. After shaking for a few seconds, solutions of TPEDB (50 μM) with various pH in the Britton-Robinson buffer containing 2 vol % DMSO were obtained. The solutions were allowed to stand for 30 min, and their FL spectra were measured before the pH values were measured using pH-meter.

[7] = Miscibility / solubility of TPEDB in aqueous media; type: physicochemical
Description: as §2

[8] = Detection of Glu in artificial urine by TPEDB; conditions: TPEDB 50 μM, carbonate buffer with artificial urine
Experimental: To explore the potential of TPEDB for real-world applications, the possibility of using TPEDB for detection of Glu in urine was tested. […] The profile of the I/I0 versus [Glu] plot for the urine Glu, however, was different from that for the “pure” Glu (in the carbonate buffer without urine) in the high-[Glu] region. Although the exact reason for this is unclear at the present time, it may be caused by the interactions of urea, α-hydroxycarboxylic acids, and salts in the urine with the boronate units of TPEDB.
An artificial urine was prepared according to the recipe reported by Keevil et al. and Whitesides et al (C. W. Keevil, et al, Lett. Appl. Microbiol. 1997. 24, 203; G. M. Whitesides, et al, Proc. Natl. Acad. Sci. U.S.A. 2008, 105, 19606). 1.1 mM Lactic acid, 2.0 mM citric acid, 25 mM sodium bicarbonate, 170 mM urea, 2.5 mM calcium chloride, 90 mM sodium chloride, 2.0 mM magnesium sulfate, 7.0 mM potassium dihydrogen phosphate, 7.0 mM dipotassium hydrogen phosphate, 10 mM sodium sulfate, and 25 mM ammonium chloride were mixed in deionized water. The pH value of the solution was adjusted to 6.0 by the addition of 1.0 M hydrochloric acid. […]
An aliquot (1 mL) of the artificial urine solution with a desired concentration of Glu was added to 2 mL solution of TPEDB (100 μM) in the carbonate buffer containing 4 vol % DMSO. […] FL spectrum of the mixture was measured after stirring for 30 min.

[9] = FL response of probe to D-galactose in carbonate buffer; conditions: TPEMB 10 μM, 10 vol % DMSO, any amount
[10] = FL response of probe to D-mannose in carbonate buffer; conditions: TPEMB 10 μM, 10 vol % DMSO, any amount
[11] = Britton-Robinson buffer, 2 vol % DMSO

SMILES: OB(O)c1ccccc1 [PBA, phenylboronic acid]
- pKa [1]: ca. 9
- Ka,sugar/Ka,Glu ([2]; Fru): 34.8
- Ka,sugar/Ka,Glu ([2]; Gal): 3.3
- Ka,sugar/Ka,Glu ([2]; Man): 2.8

- pH below which the luminogen is highly emissive [6]: < 9.0
- pH above which light emission started to decrease in intensity [6, 11]: > 8.61
- pH at which light emission became very weak [6, 11]: ≥ 9.74
- Emission of aggregates suspended in acidic buffer ([6]; pH 4.34): strong blue light
- Solubility in alkaline aqueous media ([7]; alkaline aqueous media containing small amount of DMSO): readily soluble
- Miscibility with water ([7]; water): immiscible with water
SMILES: OB(O)c1ccc(C(=C(c2ccccc2)c2ccc(B(O)O)cc2)c2ccccc2)cc1 [TPEDB, (1,2-diphenylethene-1,2-diyl)bis(1,4-phenylene)-1,1′-diboronic acid]
- Glu concentration at which the FL spectrum of TPEDB was intensified (below it almost no change) ([3]; TPEDB 50 μM, carbonate buffer pH 10.5): 0.2 mM
- [Glu] at which FL intensity reaches its maximum ([3]; TPEDB 50 μM, carbonate buffer pH 10.5, intensity decreases above): 5 mM
- Change of emission spectrum on addition of Fru ([4]; 10 mM Fru, TPEDB in carbonate buffer): only slightly intensified
- Interference of the isomeric saccharides to the FL response to Glu ([5]; 0.1 mM Fru, Gal or Man interferent, TPEDB 50 μM, carbonate buffer): almost no interference
- Affinity order of saccharide to TPEDB ([5]; suggested from interference data): Fru>Gal≈Man>Glu
- Effect of Glu in artificial urine on FL spectrum [8]: augmented its FL spectrum

SMILES: OB(O)c1ccc(C(=C(c2ccccc2)c2ccccc2)c2ccccc2)cc1 [TPEMB, 4-(1,2,2-triphenylvinyl)phenylboronic acid]
- Change in FL spectrum on addition of Glu ([3]; TPEMB 10 μM, carbonate buffer, 10 vol % DMSO, wide [Glu] range): little change
- Emission on addition of Fru ([4]; TPEMB 10 μM, carbonate buffer, 10 vol % DMSO, any amount): remained nonemissive
- Emission on addition of Gal [9]: remained nonemissive
- Emission on addition of Man [10]: remained nonemissive
